From ChEMBL document CHEMBL4507266, “Data for DCP probe BAY-784” (2021)

Key:
[1] = target: Tyrosine-protein kinase JAK1 (Homo sapiens) (UniProt P23458); conditions: Compound concentration 1000.0 nM
[2] = test system: Tyrosine-protein kinase ABL1 (Homo sapiens), P00519 [Q252H]; conditions: Compound concentration 1000.0 nM
[3] = target: AP2-associated protein kinase 1 (Homo sapiens) (UniProt Q2M2I8); conditions: Compound concentration 1000.0 nM
[4] = target: Phosphatidylinositol 4,5-bisphosphate 3-kinase catalytic subunit delta isoform (Homo sapiens) (UniProt O00329); conditions: Compound concentration 1000.0 nM
[5] = target: Fibroblast growth factor receptor 4 (Homo sapiens) (UniProt P22455); conditions: Compound concentration 1000.0 nM
[6] = target: T1, Muscarinic acetylcholine receptor M2 (Homo sapiens) (UniProt P08172); conditions: Compound concentration 10.0 uM
T1 sequence (whole entry): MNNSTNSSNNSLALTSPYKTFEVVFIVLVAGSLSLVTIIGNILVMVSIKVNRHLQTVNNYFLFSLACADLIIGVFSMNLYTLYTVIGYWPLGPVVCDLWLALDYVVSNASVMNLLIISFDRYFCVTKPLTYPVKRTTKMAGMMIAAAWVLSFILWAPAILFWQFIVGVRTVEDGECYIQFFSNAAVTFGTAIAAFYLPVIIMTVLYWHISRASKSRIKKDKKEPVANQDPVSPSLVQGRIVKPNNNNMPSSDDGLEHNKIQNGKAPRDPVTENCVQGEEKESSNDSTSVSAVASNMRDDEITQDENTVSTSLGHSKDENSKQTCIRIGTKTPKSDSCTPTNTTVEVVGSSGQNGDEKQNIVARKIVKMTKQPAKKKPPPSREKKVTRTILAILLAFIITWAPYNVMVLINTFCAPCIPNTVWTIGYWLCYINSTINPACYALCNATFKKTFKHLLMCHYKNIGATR

[7] = test system: Epidermal growth factor receptor (Homo sapiens), P00533 [UNDEFINED MUTATION]; conditions: Compound concentration 1000.0 nM
[8] = target: Ribosomal protein S6 kinase alpha-4 (Homo sapiens) (UniProt O75676); conditions: Compound concentration 1000.0 nM
[9] = target: MAP kinase-interacting serine/threonine-protein kinase 2 (Homo sapiens) (UniProt Q9HBH9); conditions: Compound concentration 1000.0 nM
[10] = target: T2, Alpha-2A adrenergic receptor (Homo sapiens) (UniProt P08913); conditions: Compound concentration 10.0 uM
T2 sequence (whole entry): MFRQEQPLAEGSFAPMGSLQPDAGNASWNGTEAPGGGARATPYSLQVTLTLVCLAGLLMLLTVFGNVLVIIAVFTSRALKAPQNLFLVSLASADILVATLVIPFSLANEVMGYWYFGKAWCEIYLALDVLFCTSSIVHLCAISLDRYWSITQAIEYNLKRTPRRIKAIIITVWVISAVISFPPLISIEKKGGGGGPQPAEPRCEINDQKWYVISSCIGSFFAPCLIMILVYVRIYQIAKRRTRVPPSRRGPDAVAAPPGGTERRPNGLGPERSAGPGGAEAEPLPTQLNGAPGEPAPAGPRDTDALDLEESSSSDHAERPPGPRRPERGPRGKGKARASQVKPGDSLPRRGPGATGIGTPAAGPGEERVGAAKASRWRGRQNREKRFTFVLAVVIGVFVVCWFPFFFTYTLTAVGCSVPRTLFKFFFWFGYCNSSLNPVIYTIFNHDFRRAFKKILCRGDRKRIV

[11] = test system: Serine/threonine-protein kinase B-raf (Homo sapiens), P15056 [V600E]; conditions: Compound concentration 1000.0 nM
[12] = test system: Phosphatidylinositol 4,5-bisphosphate 3-kinase catalytic subunit alpha isoform (Homo sapiens), P42336 [H1047Y]; conditions: Compound concentration 1000.0 nM
[13] = target: Tyrosine-protein kinase Fer (Homo sapiens) (UniProt P16591); conditions: Compound concentration 1000.0 nM
[14] = target: Inhibitor of nuclear factor kappa-B kinase subunit epsilon (Homo sapiens) (UniProt Q14164); conditions: Compound concentration 1000.0 nM
[15] = target: Microtubule-associated serine/threonine-protein kinase 1 (Homo sapiens) (UniProt Q9Y2H9); conditions: Compound concentration 1000.0 nM
[16] = target: Dual specificity tyrosine-phosphorylation-regulated kinase 1A (Homo sapiens) (UniProt Q13627); conditions: Compound concentration 1000.0 nM
[17] = target: Dual specificity mitogen-activated protein kinase kinase 1 (Homo sapiens) (UniProt Q02750); conditions: Compound concentration 1000.0 nM
[18] = target: Serine/threonine-protein kinase Nek4 (Homo sapiens) (UniProt P51957); conditions: Compound concentration 1000.0 nM
[19] = target: RAC-alpha serine/threonine-protein kinase (Homo sapiens) (UniProt P31749); conditions: Compound concentration 1000.0 nM
[20] = target: Inhibitor of nuclear factor kappa-B kinase subunit beta (Homo sapiens) (UniProt O14920); conditions: Compound concentration 1000.0 nM
[21] = target: Receptor-interacting serine/threonine-protein kinase 1 (Homo sapiens) (UniProt Q13546); conditions: Compound concentration 1000.0 nM
[22] = target: Serine/threonine-protein kinase LATS2 (Homo sapiens) (UniProt Q9NRM7); conditions: Compound concentration 1000.0 nM
[23] = target: Discoidin domain-containing receptor 2 (Homo sapiens) (UniProt Q16832); conditions: Compound concentration 1000.0 nM
[24] = target: Calcium/calmodulin-dependent protein kinase type II subunit delta (Homo sapiens) (UniProt Q13557); conditions: Compound concentration 1000.0 nM
[25] = target: Protein-tyrosine kinase 6 (Homo sapiens) (UniProt Q13882); conditions: Compound concentration 1000.0 nM
[26] = test system: Phosphatidylinositol 4,5-bisphosphate 3-kinase catalytic subunit alpha isoform (Homo sapiens), P42336 [E542K]; conditions: Compound concentration 1000.0 nM
[27] = test system: Epidermal growth factor receptor (Homo sapiens), P00533 [UNDEFINED MUTATION]; conditions: Compound concentration 1000.0 nM; remark: listed apart in the source

Epidermal growth factor receptor (Homo sapiens), P00533 [UNDEFINED MUTATION], sequence (P00533 whole entry, looked up, change not shown): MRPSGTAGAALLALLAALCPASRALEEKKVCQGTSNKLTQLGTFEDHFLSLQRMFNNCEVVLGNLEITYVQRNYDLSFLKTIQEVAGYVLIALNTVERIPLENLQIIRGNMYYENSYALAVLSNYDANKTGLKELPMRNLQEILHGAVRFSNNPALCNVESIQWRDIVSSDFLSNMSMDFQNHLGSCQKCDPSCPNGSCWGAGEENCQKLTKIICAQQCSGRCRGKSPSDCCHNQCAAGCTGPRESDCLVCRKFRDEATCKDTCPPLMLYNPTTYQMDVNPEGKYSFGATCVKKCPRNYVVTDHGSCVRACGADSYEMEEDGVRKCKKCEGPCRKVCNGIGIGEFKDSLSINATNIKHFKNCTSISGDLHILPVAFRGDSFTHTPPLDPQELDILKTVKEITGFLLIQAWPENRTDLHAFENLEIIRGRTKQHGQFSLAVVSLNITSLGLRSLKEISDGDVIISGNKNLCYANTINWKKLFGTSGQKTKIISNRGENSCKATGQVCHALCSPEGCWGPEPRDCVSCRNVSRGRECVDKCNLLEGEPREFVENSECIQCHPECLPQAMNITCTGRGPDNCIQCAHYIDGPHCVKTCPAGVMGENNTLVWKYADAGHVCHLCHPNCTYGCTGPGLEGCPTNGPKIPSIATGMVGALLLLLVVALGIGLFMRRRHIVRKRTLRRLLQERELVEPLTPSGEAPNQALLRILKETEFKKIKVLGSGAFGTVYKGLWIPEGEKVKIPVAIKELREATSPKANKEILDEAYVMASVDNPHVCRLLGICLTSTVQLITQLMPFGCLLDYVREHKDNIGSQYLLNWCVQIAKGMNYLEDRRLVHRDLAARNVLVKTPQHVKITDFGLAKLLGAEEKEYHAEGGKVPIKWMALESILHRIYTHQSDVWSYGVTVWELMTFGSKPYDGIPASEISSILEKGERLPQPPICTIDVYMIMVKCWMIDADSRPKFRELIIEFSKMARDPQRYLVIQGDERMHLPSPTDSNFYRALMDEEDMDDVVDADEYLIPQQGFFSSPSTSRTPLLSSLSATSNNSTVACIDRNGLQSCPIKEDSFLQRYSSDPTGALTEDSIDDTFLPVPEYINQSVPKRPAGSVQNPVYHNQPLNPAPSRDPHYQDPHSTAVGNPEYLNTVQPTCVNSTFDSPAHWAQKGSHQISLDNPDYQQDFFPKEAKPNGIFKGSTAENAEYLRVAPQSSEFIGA
Phosphatidylinositol 4,5-bisphosphate 3-kinase catalytic subunit delta isoform (Homo sapiens), sequence (O00329 whole entry, canonical isoform): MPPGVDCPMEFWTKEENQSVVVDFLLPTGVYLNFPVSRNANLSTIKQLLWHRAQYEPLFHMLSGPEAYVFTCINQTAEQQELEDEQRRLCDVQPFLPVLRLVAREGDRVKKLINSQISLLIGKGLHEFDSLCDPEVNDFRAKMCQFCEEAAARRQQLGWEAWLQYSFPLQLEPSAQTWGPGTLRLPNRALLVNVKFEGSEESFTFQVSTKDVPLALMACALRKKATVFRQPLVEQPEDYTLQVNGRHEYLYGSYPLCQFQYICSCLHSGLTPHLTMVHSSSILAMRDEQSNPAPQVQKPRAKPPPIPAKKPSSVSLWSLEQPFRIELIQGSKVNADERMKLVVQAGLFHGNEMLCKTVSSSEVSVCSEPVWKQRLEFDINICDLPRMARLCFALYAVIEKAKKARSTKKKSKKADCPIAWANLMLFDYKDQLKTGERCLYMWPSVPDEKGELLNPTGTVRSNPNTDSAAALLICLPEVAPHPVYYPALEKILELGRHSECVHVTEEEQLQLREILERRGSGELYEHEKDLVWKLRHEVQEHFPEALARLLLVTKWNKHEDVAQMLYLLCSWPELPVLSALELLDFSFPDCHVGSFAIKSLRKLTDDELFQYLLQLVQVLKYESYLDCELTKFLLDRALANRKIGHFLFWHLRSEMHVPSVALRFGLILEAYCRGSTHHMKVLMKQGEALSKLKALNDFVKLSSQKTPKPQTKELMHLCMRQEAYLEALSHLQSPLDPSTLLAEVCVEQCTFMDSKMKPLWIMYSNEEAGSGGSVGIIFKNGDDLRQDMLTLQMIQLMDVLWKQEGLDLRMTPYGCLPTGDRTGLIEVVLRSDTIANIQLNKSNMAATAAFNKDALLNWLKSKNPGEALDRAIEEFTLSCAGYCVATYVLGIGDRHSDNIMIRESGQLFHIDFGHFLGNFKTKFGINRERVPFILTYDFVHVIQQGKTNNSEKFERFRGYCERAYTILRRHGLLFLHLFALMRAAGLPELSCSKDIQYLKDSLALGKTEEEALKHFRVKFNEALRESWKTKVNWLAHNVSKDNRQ
Dual specificity mitogen-activated protein kinase kinase 1 (Homo sapiens), sequence (Q02750 whole entry): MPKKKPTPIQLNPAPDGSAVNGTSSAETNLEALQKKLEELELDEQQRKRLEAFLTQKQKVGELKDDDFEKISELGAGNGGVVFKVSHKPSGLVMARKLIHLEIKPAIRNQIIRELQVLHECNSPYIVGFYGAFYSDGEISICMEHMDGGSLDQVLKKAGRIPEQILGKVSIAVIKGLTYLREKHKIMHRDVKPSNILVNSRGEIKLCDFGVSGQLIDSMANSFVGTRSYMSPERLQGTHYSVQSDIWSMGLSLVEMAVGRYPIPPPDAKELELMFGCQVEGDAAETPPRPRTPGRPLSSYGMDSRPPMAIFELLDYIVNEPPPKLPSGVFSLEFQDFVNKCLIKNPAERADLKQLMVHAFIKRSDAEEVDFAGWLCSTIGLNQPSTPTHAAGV
Receptor-interacting serine/threonine-protein kinase 1 (Homo sapiens), sequence (Q13546 whole entry): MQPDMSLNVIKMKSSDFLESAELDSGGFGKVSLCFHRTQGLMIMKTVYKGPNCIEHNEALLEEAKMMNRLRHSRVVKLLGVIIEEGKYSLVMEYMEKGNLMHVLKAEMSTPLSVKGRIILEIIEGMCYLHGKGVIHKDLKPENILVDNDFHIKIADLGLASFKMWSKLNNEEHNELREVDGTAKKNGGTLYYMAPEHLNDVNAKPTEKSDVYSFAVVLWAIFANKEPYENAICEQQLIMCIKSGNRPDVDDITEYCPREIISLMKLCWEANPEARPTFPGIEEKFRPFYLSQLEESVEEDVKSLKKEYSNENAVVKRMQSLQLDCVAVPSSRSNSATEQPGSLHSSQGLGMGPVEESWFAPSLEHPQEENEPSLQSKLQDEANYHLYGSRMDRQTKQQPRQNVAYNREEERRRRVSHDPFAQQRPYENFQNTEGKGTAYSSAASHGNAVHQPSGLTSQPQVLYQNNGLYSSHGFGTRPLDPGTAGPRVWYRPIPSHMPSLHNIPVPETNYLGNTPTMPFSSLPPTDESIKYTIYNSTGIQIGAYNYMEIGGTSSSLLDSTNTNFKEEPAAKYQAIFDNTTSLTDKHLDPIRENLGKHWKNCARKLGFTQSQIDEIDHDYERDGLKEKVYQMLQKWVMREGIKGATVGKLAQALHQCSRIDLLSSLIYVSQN
Phosphatidylinositol 4,5-bisphosphate 3-kinase catalytic subunit alpha isoform (Homo sapiens), P42336 [E542K], sequence (P42336 whole entry E542K, canonical isoform): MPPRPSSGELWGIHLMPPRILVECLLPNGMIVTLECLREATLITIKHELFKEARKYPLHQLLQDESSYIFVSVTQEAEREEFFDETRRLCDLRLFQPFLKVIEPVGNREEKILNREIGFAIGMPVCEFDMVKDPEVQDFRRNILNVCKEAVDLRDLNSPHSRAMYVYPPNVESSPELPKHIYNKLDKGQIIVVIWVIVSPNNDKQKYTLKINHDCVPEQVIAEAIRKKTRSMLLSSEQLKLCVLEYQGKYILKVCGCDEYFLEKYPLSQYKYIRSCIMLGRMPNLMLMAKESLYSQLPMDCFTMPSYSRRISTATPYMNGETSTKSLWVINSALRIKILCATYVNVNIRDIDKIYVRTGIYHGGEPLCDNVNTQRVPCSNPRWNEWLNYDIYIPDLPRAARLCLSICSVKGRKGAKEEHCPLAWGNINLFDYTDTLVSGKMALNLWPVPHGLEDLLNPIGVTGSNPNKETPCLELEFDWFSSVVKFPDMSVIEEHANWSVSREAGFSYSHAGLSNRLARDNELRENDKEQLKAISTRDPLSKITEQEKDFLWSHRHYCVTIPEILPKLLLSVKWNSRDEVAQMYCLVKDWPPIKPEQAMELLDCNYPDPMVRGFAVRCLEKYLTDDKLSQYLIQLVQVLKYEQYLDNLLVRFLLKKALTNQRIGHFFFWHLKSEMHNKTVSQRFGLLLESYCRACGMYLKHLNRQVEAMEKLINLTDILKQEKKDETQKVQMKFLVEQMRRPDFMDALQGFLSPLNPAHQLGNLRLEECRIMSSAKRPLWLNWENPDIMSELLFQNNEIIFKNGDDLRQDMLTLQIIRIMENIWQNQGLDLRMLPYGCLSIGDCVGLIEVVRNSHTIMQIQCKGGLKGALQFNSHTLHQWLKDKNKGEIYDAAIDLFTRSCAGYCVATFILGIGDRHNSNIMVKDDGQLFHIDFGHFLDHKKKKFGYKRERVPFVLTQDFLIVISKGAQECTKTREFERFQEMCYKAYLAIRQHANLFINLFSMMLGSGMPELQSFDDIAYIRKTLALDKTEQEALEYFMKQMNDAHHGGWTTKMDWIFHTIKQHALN
Protein-tyrosine kinase 6 (Homo sapiens), sequence (Q13882 whole entry, looked up, canonical isoform): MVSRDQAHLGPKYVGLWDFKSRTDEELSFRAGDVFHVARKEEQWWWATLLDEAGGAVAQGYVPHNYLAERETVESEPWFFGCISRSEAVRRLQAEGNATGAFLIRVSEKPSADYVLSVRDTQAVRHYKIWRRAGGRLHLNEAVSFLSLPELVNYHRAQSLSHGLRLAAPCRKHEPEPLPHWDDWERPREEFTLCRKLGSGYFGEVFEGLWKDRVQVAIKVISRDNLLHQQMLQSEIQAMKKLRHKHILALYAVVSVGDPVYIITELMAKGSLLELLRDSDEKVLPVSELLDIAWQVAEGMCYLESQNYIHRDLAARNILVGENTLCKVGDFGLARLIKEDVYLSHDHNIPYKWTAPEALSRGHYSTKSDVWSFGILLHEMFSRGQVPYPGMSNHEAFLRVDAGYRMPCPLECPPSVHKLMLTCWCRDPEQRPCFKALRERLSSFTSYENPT
Phosphatidylinositol 4,5-bisphosphate 3-kinase catalytic subunit alpha isoform (Homo sapiens), P42336 [H1047Y], sequence (P42336 whole entry H1047Y, canonical isoform): as the sequence (P42336 whole entry E542K, canonical isoform) above, with K542E, H1047Y counted along it

Structure (SMILES)	residual activity [1] [%]	residual activity [2] [%]	residual activity [3] [%]	residual activity [4] [%]	residual activity [5] [%]	inhibition [6] [%]	residual activity [7] [%]	residual activity [8] [%]	residual activity [9] [%]	inhibition [10] [%]	residual activity [11] [%]	residual activity [12] [%]	residual activity [13] [%]	residual activity [14] [%]	residual activity [15] [%]	residual activity [16] [%]	residual activity [17] [%]	residual activity [18] [%]	residual activity [19] [%]	residual activity [20] [%]	also measured
O=C(NCc1ncc(C(F)(F)F)cc1Cl)c1ccc2c(c1)C1(CCS(=O)(=O)CC1)[C@@H](C1CC1)N2S(=O)(=O)c1ccc(F)cc1 [BAY-786]	85	87	100	67	100	12.5	87	96	76	6.57	90	85	100	82	61	85	91	99	94	86	residual activity [21]: 30%; residual activity [22]: 99%; residual activity [23]: 67%; residual activity [24]: 100%; residual activity [25]: 94%; residual activity [26]: 82%; residual activity [27]: 85%
O=C(NCc1ncc(C(F)(F)F)cc1Cl)c1ccc2c(c1)C1(CCS(=O)(=O)CC1)[C@H](C1CC1)N2S(=O)(=O)c1ccc(F)cc1 [BAY-784]	87	70	99	67	100	8.38	100	100	83	-5.62	84	90	100	77	54	88	98	99	96	92	residual activity [21]: 100%; residual activity [22]: 100%; residual activity [23]: 78%; residual activity [24]: 100%; residual activity [25]: 100%; residual activity [26]: 94%; residual activity [27]: 100%
